Entries after “also recorded” stand apart in the source; their conditions may differ. Read-outs that look alike come from different tables or passages of the source.
Legend:
[1] = for hygroscopicity: Example 4; for moisture absorbed: at/up to 95% RH
[2] = Stability assessment of diethylamine salt (Example 6); type: physicochemical
[3] = 50° C./75% RH, t=5 days
[4] = H2O/acetone, ca. 12 hrs
[5] = at 90% RH, 25° C.; listed as salt from diethylamine
[6] = Forced degradation studies (Example 7)
[7] = slurried in deionised water, ambient temperature, ca. 24 hrs
[8] = 25° C./60% RH, 1 month (Day 35)
[9] = 25° C./60% RH, 3 months (Day 96)
[10] = 40° C./75% RH, 1 month (Day 35)
[11] = 40° C./75% RH, 3 months (Day 96)
[12] = Hydrolytic (humidity), 55° C./75% RH, solid state, 8 days
[13] = Hydrolytic (humidity), 55° C./75% RH, solid state, 14 days
[14] = Hydrolytic, Acid, 1N HCl, 55° C., 8 days
[15] = Hydrolytic, Acid, 1N HCl, 55° C., 14 days
[16] = Hydrolytic, Base, 1N NaOH, 55° C., 8 days
[17] = Hydrolytic, Base, 1N NaOH, 55° C., 14 days
[18] = Oxidative, 3% H2O2, ambient temperature, 8 days
[19] = Photolytic Control (dark control in photochamber), 2X ICH
[20] = Photolytic Control (dark control in photochamber), 3X ICH
[21] = Photolytic, photochamber 25° C., solid state, 2X ICH
[22] = Photolytic, photochamber 25° C., solid state, 3X ICH
[23] = Solution Control (water, 55° C.), 8 days
[24] = Solution Control (water, 55° C.), 14 days
[25] = Solution Control (water, ambient), 8 days
[26] = Solution Control (water, ambient), 14 days
[27] = Thermolytic, 85° C., ambient humidity, solid state, 8 days
[28] = Thermolytic, 85° C., ambient humidity, solid state, 14 days

## CCNCC.O=C(O)c1cc(/N=N/c2ccc(S(=O)(=O)Nc3ccccn3)cc2)ccc1O [diethylamine salt Form A, sulfasalazine diethylamine salt Form A]
[1]
  hygroscopicity: slightly hygroscopic
  moisture absorbed: more than 1 wt %
[2]; [8]
  Appearance: Dark Orange
  Assay (Anhydrous, Solvent Free): 97.2% (w/w %)
  Total Impurities: 0.87%
  Water Content: 0.8% (w/w %)
  XRPD (Conforms to Form A): Conforms to
[2]; [9]
  Appearance: Dark Orange
  Assay (Anhydrous, Solvent Free): 95.9% (w/w %)
  Total Impurities: 0.76%
  Water Content: 0.7% (w/w %)
  XRPD (Conforms to Form A): Conforms to
[2]; [10]
  Appearance: Dark Orange
  Assay (Anhydrous, Solvent Free): 97.9% (w/w %)
  Total Impurities: 0.87%
  Water Content: 1.1% (w/w %)
  XRPD (Conforms to Form A): Conforms to
[2]; [11]
  Appearance: Dark Orange
  Assay (Anhydrous, Solvent Free): 96.5% (w/w %)
  Total Impurities: 0.77%
  Water Content: 1.1% (w/w %)
  XRPD (Conforms to Form A): Conforms to
[2]; T = 0 (Day 0)
  Appearance: Dark Orange
  Assay (Anhydrous, Solvent Free): 99.6% (w/w %)
  Total Impurities: 0.73%
  Water Content: 0.4% (w/w %)
  XRPD (Conforms to Form A): Conforms to
[3]
  stability: no evidence of degradation

## NC(CO)(CO)CO.O=C(O)c1cc(/N=N/c2ccc(S(=O)(=O)Nc3ccccn3)cc2)ccc1O [tromethamine salt Form A, sulfasalazine tromethamine (1:1) salt form (Form A)]
[1]
  hygroscopicity: hygroscopic
  moisture absorbed: over 8 wt %

## sulfasalazine diethylamine (1:1) salt [Diethylamine Salt]
[4]; High water activity (0.790)
  Hydration studies, XRPD: no solid could be obtained
[4]; Low water activity (0.281)
  Hydration studies, XRPD: slight changes; also recorded: Small change
[4]; Medium water activity (0.572)
  Hydration studies, XRPD: slight changes; also recorded: Small change
[5]
  DVS mass uptake: 1.0%
[6]; [12]
  % Change: 0.11%
  Area % (main band): 98.97%
[6]; [13]
  % Change: −0.02%
  Area % (main band): 99.10%
[6]; Hydrolytic (humidity), 75% RH, 55° C., 14 days
  degradation observed: Minimal degradation
[6]; Hydrolytic (humidity), 14 days
  Peak Purity: Pass
[6]; [14]
  % Change: −0.19%
  Area % (main band): 99.03%
[6]; [15]
  % Change: −0.25%
  Area % (main band): 98.93%
  degradation observed: Minimal degradation
[6]; Hydrolytic, Acid, 14 days
  Peak Purity: Pass
[6]; [16]
  % Change: −0.19%
  Area % (main band): 99.03%
[6]; [17]
  % Change: −0.25%
  Area % (main band): 98.93%
  degradation observed: Minimal degradation
[6]; Hydrolytic, Base, 14 days
  Peak Purity: Pass
[6]; [18]
  % Change: 1.36%
  Area % (main band): 97.52%
[6]; Oxidative, 3% H2O2, ambient temperature, 14 days
  Area % (main band): 97.30%
[6]; Oxidative, 14 days
  Peak Purity: Pass
[6]; [19]
  % Change: −0.05%
  Area % (main band): 99.13%
[6]; [20]
  % Change: −0.05%
  Area % (main band): 99.13%
[6]; Photolytic, 3X ICH
  Peak Purity: Pass
[6]; Photolytic, 3× ICH exposure
  degradation observed: Minimal degradation
[6]; [21]
  % Change: 0.42%
  Area % (main band): 98.71%
[6]; [22]
  % Change: 0.10%
  Area % (main band): 99.03%
[6]; Solid Control (unstressed), 0 days
  Area % (main band): 99.08%
[6]; [23]
  % Change: 0.24%
  Area % (main band): 98.84%
[6]; [24]
  % Change: 0.39%
  Area % (main band): 98.69%
[6]; [25]
  % Change: 0.20%
  Area % (main band): 98.88%
[6]; [26]
  % Change: 0.20%
  Area % (main band): 98.88%
[6]; Thermolytic, 80° C., 14 days
  degradation observed: Minimal degradation
[6]; [27]
  % Change: 0.12%
  Area % (main band): 98.96%
[6]; [28]
  % Change: 0.05%
  Area % (main band): 99.03%
[6]; Thermolytic, 14 days
  Peak Purity: Pass
[7]
  Salt disproportionation, XRPD: Small change

— patent US20200392084A1 (priority 2017, published 2020)
